Assay results: US20260347353A1, “INDOLIZINE DERIVATIVES FOR TREATING CANCER” (Antares Therapeutics, Inc., priority 2022, published 2026)

Key:
[1] = target: T1, p53 Y220C mutant protein (amino acid residues 94-293) (Homo sapiens, UniProt P04637, Y220C); test: Surface Plasmon Resonance (SPR) assay, p53 Y220C Kd_kinetic; conditions: multi-cycle kinetics, 16 or 20 °C, pH 7.5, 1:1 binding model
T1 construct: p53 Y220C mutant protein (amino acid residues 94-293)
Procedure: SPR experiments are performed on a Biacore 8K instrument. […] Compounds are 2-fold, 7-point serial diluted; the top concentration varies depending on the potency. Compound binding affinities are measured in the multi-cycle kinetics mode, at 30 μL/min flow rate with 60 seconds association time and 120 seconds dissociation time. The running buffer contains 50 mM Tris, pH 7.5, 100 mM NaCl, 1 mM DTT, 0.01% Brij35, 0.05% Tween-20 and 1% DMSO. The assay temperature is maintained at 16 or 20 °C and data are fit into the 1:1 binding model using the Biacore Insight Evaluation software.

p53 Y220C = p53 Y220C (Homo sapiens, UniProt P04637, Y220C); test: Luciferase Reporter Assay, p53 Y220C (NCIH1299 cells with inducible p53 Y220C and p53 response element-luciferase); type: cell-based; conditions: 6 hour compound treatment, read-out: Luc P53 Y220C AC50
Procedure: Luciferase reporter (Luc) driven by p53 response element (LTV-p53-Luc (SKU #: LTLR007); G&P Biosciences) and inducible p53 Y220C construct (Tet-One inducible expression system; Takara) were stably expressed in NCIH1299 cells by lentiviral transduction. The cells were then used for p53 reporter assay. 5,000 cells were seeded in each well of 384 plate and cultured in 0.5 ug/mL doxycycline (D3072; Sigma) containing medium for 24 hours before compound treatment. After 6 hour of compound treatment, equal volume of One-Glo reagent (E6110; Promega) was added to each well and the plate was incubated for 5 minutes with shaking at room temperature. The luciferase activity was immediately measured with PheraStar microplate reader. Luciferase activity was stimulated by 10 uM of a tool compound as positive control and AC50 was calculated.

NUGC3 cells (p53 Y220C) = test: Cell Proliferation Assay (CellTiter-Glo), NUGC3 p53 Y220C; type: cell-based; conditions: Homo sapiens, NUGC-3, 120 h, 5 days, read-out: CTG NUGC3 P53 Y220C IC50
Procedure: (§1) Inducible p53 Y220C and R273H constructs (Tet-One inducible expression system; Takara) were stably expressed in NCIH1299 cells by lentiviral transduction. NUGC3, A549, BxPC3, T3M4, HuH7, HCC2935, MFE296, NCIH1299, NCIH1299-inducible p53 Y220C, and NCIH1299-inducible p53 R273H cell lines were used for cell proliferation assay. 250-500 cells were seeded in each well of 384 plate and then compounds were dispensed into each well using Echo or Tecan. After 5 days of incubation, equal volume of CellTiter-Glo reagent (G7570; Promega) was added into each well and the plate was incubated at room temperature for 10 minutes with shaking. The luminescent signal was measured by PheraStar microplate reader and IC50 was calculated.

[2] = system: NCIH1299-inducible p53 Y220C cells; test: Cell Proliferation Assay (CellTiter-Glo), NCIH1299-inducible p53 Y220C; type: cell-based; conditions: Homo sapiens, NCI-H1299, 120 h, 5 days, read-out: CTG H1299 P53 Y220C IC50
Procedure: as §1

T1 sequence (P04637 94-293, stated change not applied): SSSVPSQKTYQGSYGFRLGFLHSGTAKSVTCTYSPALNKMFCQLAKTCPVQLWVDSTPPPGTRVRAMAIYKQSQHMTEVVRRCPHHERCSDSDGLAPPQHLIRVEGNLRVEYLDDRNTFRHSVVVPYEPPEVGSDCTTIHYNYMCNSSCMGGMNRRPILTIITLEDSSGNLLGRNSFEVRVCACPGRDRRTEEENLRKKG

Kd [1] [nM]	AC50 (p53 Y220C) [nM]	Structure (SMILES)	IC50 (NUGC3 cells (p53 Y220C)) [nM]	IC50 [2] [nM]
< 10	< 750	CN1CC[C@@H](Nc2cccn3c(SC(F)(F)F)c(-c4noc(CNC(=O)C5CC5)n4)cc23)[C@@H](F)C1 [Example 3, N-{[3-(8-{[(3S,4R)-3-fluoro-1-methylpiperidin-4-yl]amino}-3-[(trifluoromethyl)sulfanyl]indolizin-2-yl)-1,2,4-oxadiazol-5-yl]methyl}cyclopropanecarboxamide]	< 750	< 750
	1500 to 3000	CN1CC[C@@H](Nc2cccn3c(SC(F)(F)F)c(-c4noc(CNC(=O)C5CC(F)(F)C5)n4)cc23)[C@@H](F)C1 [Example 10, 3,3-difluoro-N-{[3-(8-{[(3S,4R)-3-fluoro-1-methylpiperidin-4-yl]amino}-3-[(trifluoromethyl)sulfanyl]indolizin-2-yl)-1,2,4-oxadiazol-5-yl]methyl}cyclobutane-1-carboxamide]	≥ 3000	≥ 3000
	≥ 3000	CN1CC[C@@H](Nc2cccn3c(SC(F)(F)F)c(-c4noc(CNC(=O)C5(NC(=O)OC(C)(C)C)CC5)n4)cc23)[C@@H](F)C1 [Example 22, tert-butyl N-[1-({[3-(8-{[(3S,4R)-3-fluoro-1-methylpiperidin-4-yl]amino}-3-[(trifluoromethyl)sulfanyl]indolizin-2-yl)-1,2,4-oxadiazol-5-yl]methyl}carbamoyl)cyclopropyl]carbamate]	1500 to 3000	≥ 3000
	< 750	CN1CC[C@@H](Nc2cccn3c(SC(F)(F)F)c(-c4noc(CNC(=O)C5(C#N)CC5)n4)cc23)[C@@H](F)C1 [Example 28, 1-cyano-N-{[3-(8-{[(3S,4R)-3-fluoro-1-methylpiperidin-4-yl]amino}-3-[(trifluoromethyl)sulfanyl]indolizin-2-yl)-1,2,4-oxadiazol-5-yl]methyl}cyclopropane-1-carboxamide]	< 750	< 750
10 to 100	≥ 3000	CN1CC[C@@H](Nc2cccn3c(SC(F)(F)F)c(-c4noc(CNC(=O)[C@@H]5COCCN5C)n4)cc23)[C@@H](F)C1 [Example 69, (3S)—N-{[3-(8-{[(3S,4R)-3-fluoro-1-methylpiperidin-4-yl]amino}-3-[(trifluoromethyl)sulfanyl]indolizin-2-yl)-1,2,4-oxadiazol-5-yl]methyl}-4-methylmorpholine-3-carboxamide]	≥ 3000	
< 10	< 750	CN1CC[C@@H](Nc2cccn3c(SC(F)(F)F)c(-c4noc(CNC(=O)c5cncs5)n4)cc23)[C@@H](F)C1 [Example 70]	< 750	
< 10	< 750	CN1CC[C@@H](Nc2cccn3c(SC(F)(F)F)c(-c4noc(CNC(=O)c5cnco5)n4)cc23)[C@@H](F)C1 [Example 72]	< 750	
< 10	< 750	CN1CC[C@@H](Nc2cccn3c(SC(F)(F)F)c(-c4noc(CNC(=O)c5cnc[nH]5)n4)cc23)[C@@H](F)C1 [Example 73]	750 to 1500	
< 10	750 to 1500	CN1CC[C@@H](Nc2cccn3c(SC(F)(F)F)c(-c4noc(CNC(=O)c5ncon5)n4)cc23)[C@@H](F)C1 [Example 74]	1500 to 3000	
< 10	750 to 1500	CN1CC[C@@H](Nc2cccn3c(SC(F)(F)F)c(-c4noc(CNC(=O)c5ncn[nH]5)n4)cc23)[C@@H](F)C1 [Example 75]	750 to 1500	
< 10	< 750	CN1CC[C@@H](Nc2cccn3c(SC(F)(F)F)c(-c4noc(CNC(=O)c5ccno5)n4)cc23)[C@@H](F)C1 [Example 76]	750 to 1500	
< 10	1500 to 3000	CN1CC[C@@H](Nc2cccn3c(SC(F)(F)F)c(-c4noc(CNC(=O)c5cnn[nH]5)n4)cc23)[C@@H](F)C1 [Example 80]	1500 to 3000	
< 10	< 750	CN1CC[C@@H](Nc2cccn3c(SC(F)(F)F)c(-c4noc(CNC(=O)c5cnn(C)c5)n4)cc23)[C@@H](F)C1 [Example 85]	< 750	

Further lines, the compound ahead of its results:

Structure (SMILES)	Kd [1] [nM]	AC50 (p53 Y220C) [nM]	IC50 (NUGC3 cells (p53 Y220C)) [nM]	IC50 [2] [nM]
C[C@@H](NC(=O)C1CC1)c1nc(-c2cc3c(N[C@@H]4CCN(C)C[C@@H]4F)cccn3c2SC(F)(F)F)no1 (relative stereo) [Example 51, N-[(1R*)-1-[3-(8-{[(3S,4R)-3-fluoro-1-methylpiperidin-4-yl]amino}-3-[(trifluoromethyl)sulfanyl]indolizin-2-yl)-1,2,4-oxadiazol-5-yl]ethyl]cyclopropanecarboxamide]	10 to 100	≥ 3000	≥ 3000	≥ 3000
CN1CC[C@@H](Nc2cccn3c(SC(F)(F)F)c(-c4noc(CNC(=O)c5cnn(C(C)(C)C)c5)n4)cc23)[C@@H](F)C1 [Example 2, 1-tert-butyl-N-{[3-(8-{[(3S,4R)-3-fluoro-1-methylpiperidin-4-yl]amino}-3-[(trifluoromethyl)sulfanyl]indolizin-2-yl)-1,2,4-oxadiazol-5-yl]methyl}pyrazole-4-carboxamide]	< 10	< 750	< 750	< 750
CN1CC[C@@H](Nc2cccn3c(SC(F)(F)F)c(-c4nsc(CNC(=O)C5CC5)n4)cc23)[C@@H](F)C1 [Example 4, N-{[3-(8-{[(3S,4R)-3-fluoro-1-methylpiperidin-4-yl]amino}-3-[(trifluoromethyl)sulfanyl]indolizin-2-yl)-1,2,4-thiadiazol-5-yl]methyl}cyclopropanecarboxamide]	10 to 100	≥ 3000	≥ 3000	≥ 3000
Cc1ncc(C(=O)NCc2nc(-c3cc4c(N[C@@H]5CCN(C)C[C@@H]5F)cccn4c3SC(F)(F)F)no2)o1 [Example 71]	< 10	< 750	< 750	
CN1CC[C@@H](Nc2cccn3c(SC(F)(F)F)c(-c4noc(CNC(=O)c5cnc(N)o5)n4)cc23)[C@@H](F)C1 [Example 77]	< 10	< 750	< 750	
CN1CC[C@@H](Nc2cccn3c(SC(F)(F)F)c(-c4noc(CNC(=O)c5ncn(C)n5)n4)cc23)[C@@H](F)C1 [Example 78]	< 10	< 750	< 750	
CN1CC[C@@H](Nc2cccn3c(SC(F)(F)F)c(-c4noc(CNC(=O)c5cnn(C)n5)n4)cc23)[C@@H](F)C1 [Example 79]	< 10	< 750	< 750	
CNC(=O)c1coc(NCc2nc(-c3cc4c(N[C@@H]5CCN(C)C[C@@H]5F)cccn4c3SC(F)(F)F)no2)n1 [Example 81]	< 10	< 750	750 to 1500	
CN1CC[C@@H](Nc2cccn3c(SC(F)(F)F)c(-c4noc(CNC(=O)c5nnc(N(C)C)s5)n4)cc23)[C@@H](F)C1 [Example 82]	< 10	< 750	< 750	
CN1CC[C@@H](Nc2cccn3c(SC(F)(F)F)c(-c4cnc(CNC(=O)C5CC5)o4)cc23)[C@@H](F)C1 [Example 84]	10 to 100	≥ 3000	≥ 3000	
CN1CC[C@@H](Nc2cccn3c(SC(F)(F)F)c(-c4cc(CNC(=O)c5cnn(C(C)(C)C)c5)no4)cc23)[C@@H](F)C1 [Example 89]	< 10	< 750	< 750	
CN1CC[C@@H](Nc2cccn3c(SC(F)(F)F)c(-c4noc(CNC(=O)c5nsc(N(C)C)n5)n4)cc23)[C@@H](F)C1 [Example 93]	< 10	< 750	< 750	
CN1CC[C@@H](Nc2cccn3c(SC(F)(F)F)c(-c4noc(CNC(=O)c5ccn(C6(C)CCOCC6)c5)n4)cc23)[C@@H](F)C1 [Example 94]	< 10	< 750	< 750	
Cc1noc(C(=O)NCc2nc(-c3cc4c(N[C@@H]5CCN(C)C[C@@H]5F)cccn4c3SC(F)(F)F)no2)n1 [Example 98]	< 10	750 to 1500	750 to 1500	
